Key:
[1] = biological target: Gamma-aminobutyric acid receptor subunit alpha-1 (Rattus norvegicus, UniProt P62813)
Mu-type opioid receptor = Mu-type opioid receptor (Homo sapiens, UniProt P35372); test: biochemical; format: functional
[2] = biological target: Gamma-aminobutyric acid receptor subunit alpha-1/alpha-2/beta-2/gamma-2 (Homo sapiens, UniProt P14867+P18507+P47869+P47870); format: functional, cell-based
[3] = biological target: T1, Peroxisome proliferator-activated receptor gamma (Homo sapiens, UniProt P37231); format: functional
T1 sequence (P37231 whole entry): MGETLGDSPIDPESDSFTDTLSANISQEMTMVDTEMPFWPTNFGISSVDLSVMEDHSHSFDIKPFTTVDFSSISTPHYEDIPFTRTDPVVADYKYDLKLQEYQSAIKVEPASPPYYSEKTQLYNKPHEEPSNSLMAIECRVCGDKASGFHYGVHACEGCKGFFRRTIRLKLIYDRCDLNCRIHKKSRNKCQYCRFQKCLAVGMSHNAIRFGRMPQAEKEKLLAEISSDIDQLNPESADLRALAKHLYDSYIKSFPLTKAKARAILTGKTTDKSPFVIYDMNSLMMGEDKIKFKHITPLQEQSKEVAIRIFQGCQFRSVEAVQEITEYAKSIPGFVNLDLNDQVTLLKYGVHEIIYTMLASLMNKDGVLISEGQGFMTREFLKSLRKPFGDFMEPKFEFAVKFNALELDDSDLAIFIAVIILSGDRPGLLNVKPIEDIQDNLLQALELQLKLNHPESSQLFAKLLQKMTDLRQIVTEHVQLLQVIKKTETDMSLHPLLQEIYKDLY

[4] = biological target: T1, Peroxisome proliferator-activated receptor gamma; format: functional; remark: listed apart in the source
Progesterone receptor = biological target: T2, Progesterone receptor (Homo sapiens, UniProt P06401)
T2 sequence (P06401 whole entry): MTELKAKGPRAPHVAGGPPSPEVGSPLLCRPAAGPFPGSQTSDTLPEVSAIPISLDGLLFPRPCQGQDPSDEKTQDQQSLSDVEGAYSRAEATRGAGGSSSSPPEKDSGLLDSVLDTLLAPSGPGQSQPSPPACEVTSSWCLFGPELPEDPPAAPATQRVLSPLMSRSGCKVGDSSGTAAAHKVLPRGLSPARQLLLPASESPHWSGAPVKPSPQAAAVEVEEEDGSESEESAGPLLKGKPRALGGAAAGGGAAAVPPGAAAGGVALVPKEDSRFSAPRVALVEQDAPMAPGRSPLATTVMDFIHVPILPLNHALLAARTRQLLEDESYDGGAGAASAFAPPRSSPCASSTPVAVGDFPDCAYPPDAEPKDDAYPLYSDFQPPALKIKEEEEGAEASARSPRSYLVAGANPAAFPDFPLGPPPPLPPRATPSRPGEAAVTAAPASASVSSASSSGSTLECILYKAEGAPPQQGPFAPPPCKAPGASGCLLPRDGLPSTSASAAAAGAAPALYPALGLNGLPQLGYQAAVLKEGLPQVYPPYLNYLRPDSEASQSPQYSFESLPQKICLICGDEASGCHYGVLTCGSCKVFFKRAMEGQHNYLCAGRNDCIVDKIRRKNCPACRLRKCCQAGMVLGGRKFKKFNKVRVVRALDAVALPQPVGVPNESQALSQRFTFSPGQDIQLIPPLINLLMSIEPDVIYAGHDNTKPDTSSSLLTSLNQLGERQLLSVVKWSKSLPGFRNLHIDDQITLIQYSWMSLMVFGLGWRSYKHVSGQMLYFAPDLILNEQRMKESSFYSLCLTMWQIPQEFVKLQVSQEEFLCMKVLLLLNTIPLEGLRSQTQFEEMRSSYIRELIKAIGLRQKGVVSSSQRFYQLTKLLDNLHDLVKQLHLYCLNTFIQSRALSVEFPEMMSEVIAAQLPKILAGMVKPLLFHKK

Glucocorticoid receptor [5] = biological target: T3, Glucocorticoid receptor (Homo sapiens, UniProt P04150); format: functional
T3 sequence (P04150 whole entry): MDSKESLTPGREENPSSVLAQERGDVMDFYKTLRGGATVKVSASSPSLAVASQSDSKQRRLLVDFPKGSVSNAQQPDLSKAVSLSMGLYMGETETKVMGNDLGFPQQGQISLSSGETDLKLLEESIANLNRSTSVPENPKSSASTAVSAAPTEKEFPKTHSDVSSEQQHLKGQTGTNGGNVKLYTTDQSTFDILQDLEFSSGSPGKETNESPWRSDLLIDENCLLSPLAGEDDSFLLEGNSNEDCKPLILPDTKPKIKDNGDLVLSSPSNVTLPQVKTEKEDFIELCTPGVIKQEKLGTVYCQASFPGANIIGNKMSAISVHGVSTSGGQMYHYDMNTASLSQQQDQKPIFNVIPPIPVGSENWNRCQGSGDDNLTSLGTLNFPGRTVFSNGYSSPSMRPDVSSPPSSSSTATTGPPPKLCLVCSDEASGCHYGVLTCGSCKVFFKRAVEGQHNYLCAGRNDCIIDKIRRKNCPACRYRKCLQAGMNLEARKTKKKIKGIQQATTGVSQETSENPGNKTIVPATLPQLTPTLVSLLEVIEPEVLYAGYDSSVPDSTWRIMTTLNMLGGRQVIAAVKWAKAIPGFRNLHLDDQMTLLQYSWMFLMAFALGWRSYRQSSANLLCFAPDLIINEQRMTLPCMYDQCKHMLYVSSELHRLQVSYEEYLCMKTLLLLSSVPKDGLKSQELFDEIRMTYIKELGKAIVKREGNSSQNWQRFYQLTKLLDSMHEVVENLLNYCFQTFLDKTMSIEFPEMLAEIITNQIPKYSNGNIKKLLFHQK

Glucocorticoid receptor [6] = biological target: T3, Glucocorticoid receptor; format: functional; remark: listed apart in the source
Also: assay procedure not described here.

Sequence of Gamma-aminobutyric acid receptor subunit alpha-1/alpha-2/beta-2/gamma-2 (P14867 whole entry): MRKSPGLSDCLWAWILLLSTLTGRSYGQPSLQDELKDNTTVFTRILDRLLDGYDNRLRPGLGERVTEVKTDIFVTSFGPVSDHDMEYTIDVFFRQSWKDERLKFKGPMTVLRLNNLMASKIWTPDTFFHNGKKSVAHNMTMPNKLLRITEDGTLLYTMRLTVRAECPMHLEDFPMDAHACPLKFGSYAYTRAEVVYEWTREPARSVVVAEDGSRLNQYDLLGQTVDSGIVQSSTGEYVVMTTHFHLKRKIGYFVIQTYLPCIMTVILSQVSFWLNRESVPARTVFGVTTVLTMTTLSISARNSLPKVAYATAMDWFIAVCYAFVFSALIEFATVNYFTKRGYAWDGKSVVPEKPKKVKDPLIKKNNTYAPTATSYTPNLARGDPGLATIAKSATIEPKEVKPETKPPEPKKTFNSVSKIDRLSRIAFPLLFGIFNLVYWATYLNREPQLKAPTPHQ
Sequence of Gamma-aminobutyric acid receptor subunit alpha-1/alpha-2/beta-2/gamma-2 (P47870 whole entry): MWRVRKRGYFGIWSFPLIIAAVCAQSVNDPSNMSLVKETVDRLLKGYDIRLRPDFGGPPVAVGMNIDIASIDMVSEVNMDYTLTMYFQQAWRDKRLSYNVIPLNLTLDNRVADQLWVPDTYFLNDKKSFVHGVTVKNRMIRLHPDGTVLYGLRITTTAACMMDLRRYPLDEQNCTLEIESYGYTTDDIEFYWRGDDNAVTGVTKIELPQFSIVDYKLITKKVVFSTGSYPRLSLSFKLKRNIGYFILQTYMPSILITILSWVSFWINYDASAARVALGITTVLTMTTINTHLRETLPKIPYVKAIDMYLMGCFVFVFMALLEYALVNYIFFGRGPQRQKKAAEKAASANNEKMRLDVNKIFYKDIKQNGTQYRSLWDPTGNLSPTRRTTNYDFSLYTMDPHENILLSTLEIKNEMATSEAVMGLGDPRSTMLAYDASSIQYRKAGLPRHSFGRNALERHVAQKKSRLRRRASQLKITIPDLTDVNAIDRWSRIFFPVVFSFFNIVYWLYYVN
Sequence of Gamma-aminobutyric acid receptor subunit alpha-1/alpha-2/beta-2/gamma-2 (P18507 whole entry): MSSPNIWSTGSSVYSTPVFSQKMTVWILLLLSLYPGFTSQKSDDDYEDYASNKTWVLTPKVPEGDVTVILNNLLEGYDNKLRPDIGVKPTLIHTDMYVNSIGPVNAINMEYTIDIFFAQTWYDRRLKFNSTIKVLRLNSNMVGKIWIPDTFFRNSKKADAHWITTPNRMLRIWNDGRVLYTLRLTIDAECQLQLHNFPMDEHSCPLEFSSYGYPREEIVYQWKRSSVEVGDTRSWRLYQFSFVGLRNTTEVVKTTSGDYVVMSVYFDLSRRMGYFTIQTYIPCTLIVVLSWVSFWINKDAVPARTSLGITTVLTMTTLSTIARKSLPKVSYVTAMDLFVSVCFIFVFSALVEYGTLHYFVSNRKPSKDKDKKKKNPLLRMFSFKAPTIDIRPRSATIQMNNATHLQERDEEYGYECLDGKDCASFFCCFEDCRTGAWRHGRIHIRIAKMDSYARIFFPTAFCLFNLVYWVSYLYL
Sequence of Gamma-aminobutyric acid receptor subunit alpha-1/alpha-2/beta-2/gamma-2 (P47869 whole entry): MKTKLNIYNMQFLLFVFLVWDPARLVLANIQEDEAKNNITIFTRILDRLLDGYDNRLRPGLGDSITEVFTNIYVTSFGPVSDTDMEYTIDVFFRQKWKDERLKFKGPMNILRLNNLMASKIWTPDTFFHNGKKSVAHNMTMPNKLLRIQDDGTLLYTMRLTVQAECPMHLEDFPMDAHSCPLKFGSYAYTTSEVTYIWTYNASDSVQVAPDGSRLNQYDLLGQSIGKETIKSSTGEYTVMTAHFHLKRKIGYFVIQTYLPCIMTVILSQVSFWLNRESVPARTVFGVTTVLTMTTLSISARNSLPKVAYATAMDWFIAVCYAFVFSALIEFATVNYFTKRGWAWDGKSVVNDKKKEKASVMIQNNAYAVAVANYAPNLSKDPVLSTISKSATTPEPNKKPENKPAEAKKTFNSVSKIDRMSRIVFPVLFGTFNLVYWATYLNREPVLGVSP
Sequence of Gamma-aminobutyric acid receptor subunit alpha-1 (P62813 whole entry): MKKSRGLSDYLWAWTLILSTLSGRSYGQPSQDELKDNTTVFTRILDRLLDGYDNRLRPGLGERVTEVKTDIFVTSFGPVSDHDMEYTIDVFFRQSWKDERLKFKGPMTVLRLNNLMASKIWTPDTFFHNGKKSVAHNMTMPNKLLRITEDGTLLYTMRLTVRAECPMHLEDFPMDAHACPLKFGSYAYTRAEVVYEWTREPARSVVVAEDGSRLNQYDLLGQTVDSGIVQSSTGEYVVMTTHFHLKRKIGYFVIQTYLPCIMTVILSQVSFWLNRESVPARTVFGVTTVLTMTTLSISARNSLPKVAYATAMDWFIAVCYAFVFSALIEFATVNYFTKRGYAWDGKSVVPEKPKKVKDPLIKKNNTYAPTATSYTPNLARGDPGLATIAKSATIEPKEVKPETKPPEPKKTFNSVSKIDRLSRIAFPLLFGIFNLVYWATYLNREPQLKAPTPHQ
Sequence of Mu-type opioid receptor (P35372 whole entry): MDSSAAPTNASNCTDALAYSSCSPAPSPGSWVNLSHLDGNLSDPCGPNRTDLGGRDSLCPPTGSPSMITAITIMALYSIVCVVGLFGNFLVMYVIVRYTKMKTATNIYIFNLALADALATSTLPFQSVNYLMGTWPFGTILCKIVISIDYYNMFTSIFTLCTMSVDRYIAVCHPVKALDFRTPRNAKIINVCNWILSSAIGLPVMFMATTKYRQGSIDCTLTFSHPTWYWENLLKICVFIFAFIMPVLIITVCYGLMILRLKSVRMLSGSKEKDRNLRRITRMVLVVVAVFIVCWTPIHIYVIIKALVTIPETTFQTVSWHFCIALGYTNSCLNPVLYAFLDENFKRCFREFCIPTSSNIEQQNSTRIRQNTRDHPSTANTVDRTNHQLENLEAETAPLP

C[C@@H](CN1CC(=O)NC(=O)C1)N1CC(=O)NC(=O)C1 [DEXRAZOXANE]
AC50 [1]: > 30 µM

O=c1[nH]cc(F)c(=O)[nH]1 [FLUOROURACIL]
AC50 [1]: > 30 µM

CCN(CCO)CCCC(C)Nc1ccnc2cc(Cl)ccc12 (centres undefined) [HYDROXYCHLOROQUINE]
AC50 (Mu-type opioid receptor): > 30 µM

OC[C@H]1NC[C@H](O)[C@@H](O)[C@H]1O
AC50 [1]: > 30 µM

CCN(CC)CCn1c(=O)c(Cc2ccc(OC)cc2)nc2ccccc21 [CAROVERINE]
AC50 (Mu-type opioid receptor): > 30 µM

CS(=O)(=O)Nc1ccc([N+](=O)[O-])cc1Oc1ccccc1 [NIMESULIDE]
AC50 [2]: > 30 µM
AC50 (Mu-type opioid receptor): > 30 µM

N[C@@H](Cc1cc(I)c(Oc2cc(I)c(O)c(I)c2)c(I)c1)C(=O)O [LEVOTHYROXINE]
AC50 [2]: > 30 µM
AC50 [3]: > 30 µM
AC50 (Mu-type opioid receptor): > 30 µM
AC50 [4]: > 30 µM

CN(C)CCC=C1c2ccccc2CCc2ccccc21 [AMITRIPTYLINE]
AC50 (Progesterone receptor): > 30 µM

NCCCNCCSP(=O)(O)O [AMIFOSTINE]
AC50 (Mu-type opioid receptor): > 30 µM

CCOCC(O)COc1ccc(NC(=O)CC[S+](C)C)cc1 (centres undefined)
AC50 [2]: > 30 µM
AC50 [3]: > 30 µM
AC50 (Glucocorticoid receptor [5]): > 30 µM
AC50 [4]: > 30 µM
AC50 (Glucocorticoid receptor [6]): > 30 µM

O=NN(CCCl)C(=O)NC1CCCCC1 [LOMUSTINE]
AC50 [1]: > 30 µM

CN(C)CCc1c[nH]c2ccc(CS(=O)(=O)N3CCCC3)cc12 [ALMOTRIPTAN]
AC50 [2]: > 30 µM
AC50 (Mu-type opioid receptor): > 30 µM

CC#CC(=O)N1CCC[C@H]1c1nc(-c2ccc(C(=O)Nc3ccccn3)cc2)c2c(N)nccn12 [ACALABRUTINIB]
AC50 [1]: > 30 µM

C=CC1=C(C(=O)O)N2C(=O)[C@@H](NC(=O)/C(=N\O)c3csc(N)n3)[C@H]2SC1
AC50 (Progesterone receptor): > 30 µM

CCCCCCCCCCCCCCCC(=O)OC[C@H](COP(=O)([O-])OCC[N+](C)(C)C)OC(=O)CCCCCCCCCCCCCCC [COLFOSCERIL PALMITATE]
AC50 [1]: > 30 µM

O=C(O)[C@H]1/C(=C/CO)O[C@@H]2CC(=O)N21 [CLAVULANIC ACID]
AC50 [2]: > 30 µM
AC50 [3]: > 30 µM
AC50 (Glucocorticoid receptor [5]): > 30 µM
AC50 [4]: > 30 µM
AC50 (Glucocorticoid receptor [6]): > 30 µM

CC[N+](CC)(CCNC(=O)C(=O)NCC[N+](CC)(CC)Cc1ccccc1Cl)Cc1ccccc1Cl [AMBENONIUM]
AC50 (Mu-type opioid receptor): 4.3 µM

CC(C)(CO)c1cc2cc(NC(=O)C3(c4ccc5c(c4)OC(F)(F)O5)CC3)c(F)cc2n1C[C@@H](O)CO [TEZACAFTOR]
AC50 [3]: > 30 µM
AC50 (Glucocorticoid receptor [5]): > 30 µM
AC50 [4]: > 30 µM
AC50 (Glucocorticoid receptor [6]): > 30 µM

CC(=O)NC[C@H]1CN(c2ccc(N3CCOCC3)c(F)c2)C(=O)O1 [LINEZOLID]
AC50 (Mu-type opioid receptor): > 30 µM

CN1CCC(N(Cc2cccs2)c2ccccc2)CC1 [THENALIDINE]
AC50 [1]: > 30 µM

C[C@]12CCC(=O)C=C1CC[C@H]1[C@@H]3CC[C@](O)(C(=O)CO)[C@@]3(C)C[C@H](O)[C@@]12F [FLUDROCORTISONE]
AC50 (Progesterone receptor): > 30 µM

N=C(N)NCC1COc2ccccc2O1 (centres undefined) [GUANOXAN]
AC50 [1]: > 30 µM

CN(C)CCN(Cc1ccccc1)c1ccccn1 [TRIPELENNAMINE]
AC50 [1]: > 30 µM

CN(C)CCOC(c1ccc(Cl)cc1)c1ccccn1 (centres undefined) [CARBINOXAMINE]
AC50 [2]: > 30 µM
AC50 [3]: > 30 µM
AC50 (Mu-type opioid receptor): > 30 µM
AC50 [4]: > 30 µM

CC(=O)Oc1ccccc1C(=O)O [ASPIRIN]
AC50 (Progesterone receptor): > 30 µM

C[C@H](CS)C(=O)N1CCC[C@H]1C(=O)O [CAPTOPRIL]
AC50 (Progesterone receptor): > 30 µM

CC(C)NC[C@H](O)COc1ccc(O)cc1 [PRENALTEROL]
AC50 [1]: > 30 µM

O=C(O)[C@@H](S)[C@@H](S)C(=O)O
AC50 [1]: > 30 µM

COc1cccc2c1C(=O)c1c(O)c3c(c(O)c1C2=O)C[C@@](O)(C(=O)CO)C[C@@H]3O[C@H]1C[C@H](N)[C@H](O[C@@H]2CCCCO2)[C@H](C)O1 [PIRARUBICIN]
AC50 [1]: > 30 µM

Cc1cc(C)cc(OCC2CNC(=O)O2)c1 (centres undefined) [METAXALONE]
AC50 [1]: > 30 µM

CCOC(=O)Nc1ccc(NCc2ccc(F)cc2)nc1N [FLUPIRTINE]
AC50 (Mu-type opioid receptor): > 30 µM

C[C@H](Cn1cnc2c(N)ncnc21)OCP(=O)(O)O [TENOFOVIR ANHYDROUS]
AC50 (Mu-type opioid receptor): > 30 µM

Cc1c(C)c2c(c(C)c1O)CCC(C)(COc1ccc(CC3SC(=O)NC3=O)cc1)O2 (centres undefined) [TROGLITAZONE]
AC50 (Progesterone receptor): > 30 µM
AC50 [2]: 6.8 µM
AC50 (Mu-type opioid receptor): > 30 µM

C[C@]12CC[C@@H]3c4ccc(OC(=O)N(CCCl)CCCl)cc4CC[C@H]3[C@@H]1CC[C@@H]2OP(=O)(O)O [ESTRAMUSTINE PHOSPHATE]
AC50 [1]: > 30 µM

CCOC(=O)[C@H](CCc1ccccc1)N[C@@H](C)C(=O)N1Cc2ccccc2C[C@H]1C(=O)O
AC50 (Progesterone receptor): > 30 µM
AC50 [1]: > 30 µM

O=C(O)COC(=O)Cc1ccccc1Nc1c(Cl)cccc1Cl [ACECLOFENAC]
AC50 (Progesterone receptor): > 30 µM

CC(C)C[C@H](NC(=O)[C@H](Cc1ccccc1)NC(=O)c1cnccn1)B(O)O [BORTEZOMIB]
AC50 (Mu-type opioid receptor): > 30 µM

CC(C)/N=c1\cc2n(-c3ccc(Cl)cc3)c3ccccc3nc-2cc1Nc1ccc(Cl)cc1 [CLOFAZIMINE]
AC50 (Glucocorticoid receptor [5]): > 30 µM
AC50 (Mu-type opioid receptor): > 30 µM
AC50 (Glucocorticoid receptor [6]): > 30 µM

CCCCCCO[C@@H](C)c1cccc(-c2csc(NC(=O)c3cc(Cl)c(/C=C(\C)C(=O)O)c(Cl)c3)n2)c1OC [LUSUTROMBOPAG]
AC50 [1]: > 30 µM

O=C(Cc1cccs1)N[C@@H]1C(=O)N2C(C(=O)[O-])=C(C[n+]3ccccc3)CS[C@H]12 [CEPHALORIDINE]
AC50 [2]: > 30 µM
AC50 (Mu-type opioid receptor): > 30 µM
AC50 [1]: > 30 µM

Nc1nnc(-c2cccc(Cl)c2Cl)c(N)n1 [LAMOTRIGINE]
AC50 (Progesterone receptor): > 30 µM

CCCCCCCC/C=C\CCCCCCCC(=O)O [OLEIC ACID]
AC50 [3]: > 300 µM
AC50 [4]: > 300 µM

C#CCN(C)Cc1ccccc1 [PARGYLINE]
AC50 [2]: > 30 µM
AC50 (Mu-type opioid receptor): > 30 µM
AC50 [1]: > 30 µM

CN(C)CCCC1(c2ccc(F)cc2)OCc2cc(C#N)ccc21 (centres undefined) [CITALOPRAM]
AC50 (Progesterone receptor): > 30 µM
AC50 [1]: > 30 µM

CC(=O)SCC(Cc1ccccc1)C(=O)NCC(=O)OCc1ccccc1 (centres undefined) [RACECADOTRIL]
AC50 (Progesterone receptor): > 30 µM
AC50 (Glucocorticoid receptor [5]): > 30 µM
AC50 (Mu-type opioid receptor): > 30 µM
AC50 (Glucocorticoid receptor [6]): 6.3 µM

O=C(c1ccccc1)c1ccc2n1CCC2C(=O)O (centres undefined) [KETOROLAC]
AC50 (Mu-type opioid receptor): 0.0013 µM

CCOc1ccccc1OCCN[C@H](C)Cc1ccc(OC)c(S(N)(=O)=O)c1 [TAMSULOSIN]
AC50 (Progesterone receptor): > 30 µM
AC50 (Mu-type opioid receptor): 3.8 µM

COC(=O)CCc1ccc(OCC(O)CNC(C)C)cc1 (centres undefined) [ESMOLOL]
AC50 (Mu-type opioid receptor): > 30 µM

C=CCOc1ccc(CC(=O)O)cc1Cl [ALCLOFENAC]
AC50 [1]: > 30 µM

CO[C@@]1(NC(=O)C(C(=O)O)c2ccc(O)cc2)C(=O)N2C(C(=O)O)=C(CSc3nnnn3C)CO[C@@H]21 (some centres undefined) [MOXALACTAM]
AC50 [1]: > 30 µM

Source: ChEMBL document CHEMBL5291721, “A preclinical secondary pharmacology resource illuminates target-adverse drug reaction associations of marketed drugs” (Nat Commun, 2023)
